Data reported in patent US12172992B2, “Pyrimidines for degrading Bruton's tyrosine kinase” (AbbVie Inc., priority 2022, dated 2024).

How the values were obtained:
[1] = molecular target: BTK protein in human whole blood (Homo sapiens (Human), UniProt Q06187); experiment: Btk protein in human whole blood MSD ELISA based assay (BTK degradation); assay type: cell-based; details: 6 hours, maximum BTK degradation compared to DMSO only treated samples, read-out: hWB BTK dMax (%)
Description: Btk protein degradation was tested using an Meso Scale Discovery-ELISA system (MSD-ELISA): (1) Test compounds were added to human whole blood; (2) human whole blood cells treated with test compounds were lysed; (3) lysed cells were treated with capture antibody, an antibody to Btk; (4) lysed cells were treated with […] to Btk; and (5) lysed cells were treated with anti-mouse antibody (tagged).
Specifically, about 80 μl of fresh human whole blood from healthy donors was transferred into each well of a 96-well V-bottom plate (Costar, Cat No. 3894). Using a TECAN™ D300e Digital Dispenser (Tecan)), 1:4 serially diluted compounds [(8 pt assay) in DMSO solution (final 0.2%) starting at 3 μM top concentration], were added in duplicate. Thereafter, plates were placed in a 37° C. incubator and incubated for 6 hours.
At the end of incubation, 80 μl of 2×CST lysis buffer (Cell Signaling Technology, Cat No. 9803), prepared from a 10× stock solution, was added per well to lyse the blood. Plates were then sealed with a plate sealer and the samples were frozen overnight at −80° C.
Total amount of BTK protein remaining in the blood samples after compound treatment was measured using MSD-ELISA. After thawing the frozen plates, blood lysates were mixed thoroughly and transferred to small spot high-bind MSD plates (Meso Scale Discovery, Cat No. L45XB-3) and coated with capturing antibody, rabbit anti-human BTK (D3H5) (Cell Signaling Technology, Cat No. 8547CF). Thereafter, primary detection antibody, mouse anti-human BTK monoclonal antibody, (BD Biosciences, Cat No. 611117) and secondary detection antibody, anti-mouse SULFO-TAG (Meso Scale Discovery, Cat No. R32AC-1) were added. The assay plates were read on an MSD S600 plate reader by the addition of 2×MSD read buffer (Meso Scale Discovery, R92TC-1). All reagent transfers, including blood lysis, was conducted using a Biomed i7 liquid handler. From the dose response curves, DC50 values were calculated by averaging data from duplicate experiments. and Curve fitting was done by non-linear regression using GraphPad Prism. The DC50 values are reported in Table 2 in the hWB BTK DC50 (nM) column The Dmax values represent the maximum amount of BTK degradation observed upon compound treatment compared to DMSO only treated samples. The dMax (%) values are reported in Table 2 in the hWB BTK dMax (%) column.

BTK in mouse bone marrow = BTK in mouse bone marrow (Mus musculus (Mouse), UniProt P35991); experiment: Mouse Bone Marrow Assay (MSD ELISA of BTK degradation in bone marrow); assay type: in vivo; details: female C57BL/6J mice, single dose of Dose A, bone marrow collected after 24 hours
Description: Female C57BL/6J mice (Jackson Laboratories) were used for this study. Compounds or vehicle/control were prepped with EtOH; PEG-400; Phosal 53 MCT (10:30:60, v/v). Four mice were tested per compound or vehicle/control. On Day 1, mice were administered a single dose of Dose A. On Day 2 (after 24 hours), tissue (bone marrow) was collected from one hind leg per mouse.
An MSD (Meso Scale Discovery) ELISA (enzyme-linked immunosorbent assay) based assay was used to determine BTK degradation in mouse bone marrow. The following materials and equipment were used: 10% NP40 solution (nonionic polyoxyethylene surfactant, ThermoFisher, cat no. 28324); protease inhibitor mini tablet (Roche, cat no. 05 892 970 001); PhosphoSTOP™ tablet (Roche, cat no. 04 906 837 001); Pierce™ BCA Protein Assay Kit (Thermofisher, Cat No. 23225); Precellys® 2 mL lysing tube with 2.8 mm beads (VWR, cat no. 10032-756); Bertin Precellys® 24/Cryolys® cooling system; 96-well MSD streptavidin pre-coated plates (MSD, cat no. L15SA-1); MSD Blocker A (MSD, cat no. R93BA-4); capture antibody, biotinylated BTK mAb (BD Biosciences, cat no. 624008; custom order); primary detection antibody, BTK RpAb (rabbit polyclonal antibody, CST, cat no. 8547S, D3H5 clone); secondary detection antibody, anti-Rabbit-Sulfo-Tag (MSD, cat no. R32AB-1); read Buffer, 4× (MSD, cat no. R92TC-1); recombinant BTK protein (Thermofisher, cat no. PR5442A); MSD Tris Wash Buffer (10×) (MSD, cat no. R61TX-1); PBS (phosphate-buffered saline); deionized water (diH2O); Lysis Buffer [0.2% NP40 in PBS+Protease Inhibitor tablet (1 tablet/10 mL)+PhosphoSTOP tablet (1 tablet/10 mL)]; 3% MSD Blocker A [MSD Blocker A+450 mL diH2O+50 mL]; and 10×MSD Tris Wash Buffer.
Lysis buffer [(PBS+0.2% NP40+PI (protease inhibitor)+PhosphoSTOP)] was prepared and put on ice until it was fully cold. Ice cold lysis buffer […] was added to each Precellys® tube containing beads and bone marrow sample. Sample tubes were transferred into Precellys® machine and homogenized using 5000 rpm—2×20 seconds. The sample lysates were centrifuged at 14,000 rpm for 20 minutes at 4° C. after homogenizing.
The protein concentration was determined using Pierce™ BCA Protein Assay Kit following manufacturer's recommended protocol. The protein normalized working solution was prepared, using 30 μg protein per sample lysate for assay.
A 300 ng/ml working stock solution of recombinant BTK protein in lysis buffer was prepared, and the sample was serially diluted at 3-fold dilution (10-point assay, highest concentration was 300 ng/mL and lowest concentration was 0.015 ng/mL)
MSD plate coating: Coating antibody (biotinylated-BTK mAb) stock solution was prepared at 1 μg/mL in PBS buffer. 50 μL/well capture antibody (Biotinylated BTK mAb) solution was added, and the plates were shaken gently at ambient temperature for two hours. The plates were washed 3 times with 1×MSD Tris Wash Buffer in a plate washer (300 μL/well), and the plates were blocked with 3% MSD Blocker A (150 μL/well). The plates were incubated for an additional 1-2 hours at ambient temperature with gentle shaking. The plates were washed 3 times with 1×MSD wash buffer using plate washer. Bone marrow lysates (30 μg) at a final volume of 50 μL/well were added into the plates. The serially diluted standard samples were added to the same plates at a final volume of 50 μL/well. The plates were incubated overnight at 4° C. with gentle shaking.
The plates were washed three times with 1×MSD wash buffer (prepared from 10× concentration buffer) using plate washer. Primary detection antibody at 50 μL/well was added (BTK RpAb; 1:1000 dilution in 1% MSD Blocker A). The plates were incubated for two hours at ambient temperature with gentle shaking. The plates were washed three times with 1×MSD wash buffer using plate washer. Anti-Rabbit-SULFO-TAG secondary antibodies (50 μl/well) were added, 1:500 diluted in 1% MSD Blocker A, and the plates were incubated for one to two hours at ambient temperature. […]

Chain of BTK in mouse bone marrow (P35991 whole entry): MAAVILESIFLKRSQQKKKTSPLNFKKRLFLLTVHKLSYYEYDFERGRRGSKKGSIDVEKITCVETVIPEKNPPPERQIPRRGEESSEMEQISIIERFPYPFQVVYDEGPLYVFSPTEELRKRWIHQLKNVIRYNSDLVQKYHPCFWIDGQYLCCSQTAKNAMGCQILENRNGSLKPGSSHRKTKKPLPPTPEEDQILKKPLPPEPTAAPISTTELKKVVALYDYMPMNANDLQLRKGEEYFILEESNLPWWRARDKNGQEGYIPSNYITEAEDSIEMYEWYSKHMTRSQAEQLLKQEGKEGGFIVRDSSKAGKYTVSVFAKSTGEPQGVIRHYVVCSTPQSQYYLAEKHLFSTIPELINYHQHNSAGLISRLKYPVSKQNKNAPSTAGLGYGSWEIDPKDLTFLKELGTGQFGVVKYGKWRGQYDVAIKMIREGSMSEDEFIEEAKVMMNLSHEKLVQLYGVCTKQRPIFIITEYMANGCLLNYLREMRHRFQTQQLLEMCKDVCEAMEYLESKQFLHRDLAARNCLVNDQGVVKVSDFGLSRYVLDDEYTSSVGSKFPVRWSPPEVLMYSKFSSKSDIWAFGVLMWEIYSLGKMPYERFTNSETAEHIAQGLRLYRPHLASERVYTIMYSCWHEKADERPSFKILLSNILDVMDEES
Chain of BTK protein in human whole blood (Q06187 whole entry): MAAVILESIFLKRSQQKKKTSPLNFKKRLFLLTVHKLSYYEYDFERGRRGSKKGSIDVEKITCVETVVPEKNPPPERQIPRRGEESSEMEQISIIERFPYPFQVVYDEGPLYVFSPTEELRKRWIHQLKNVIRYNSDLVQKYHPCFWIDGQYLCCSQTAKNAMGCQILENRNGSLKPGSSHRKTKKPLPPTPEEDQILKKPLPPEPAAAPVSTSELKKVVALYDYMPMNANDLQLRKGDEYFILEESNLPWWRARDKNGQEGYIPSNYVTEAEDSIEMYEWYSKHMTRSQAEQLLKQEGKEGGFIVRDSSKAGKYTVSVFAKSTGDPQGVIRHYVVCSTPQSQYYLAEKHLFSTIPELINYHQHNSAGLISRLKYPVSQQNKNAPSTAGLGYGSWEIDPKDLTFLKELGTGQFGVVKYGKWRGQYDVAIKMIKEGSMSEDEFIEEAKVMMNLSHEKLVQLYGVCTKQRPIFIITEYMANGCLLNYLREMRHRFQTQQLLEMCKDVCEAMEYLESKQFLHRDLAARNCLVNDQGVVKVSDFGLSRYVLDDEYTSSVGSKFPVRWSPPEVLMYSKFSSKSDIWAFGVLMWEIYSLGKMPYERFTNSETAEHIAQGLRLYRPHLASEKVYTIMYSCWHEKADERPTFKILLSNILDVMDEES

Row | Compound | Dmax [1] [%] | Mouse Bone Marrow (%) (% remaining BTK, vehicle versus treated) (BTK in mouse bone marrow)
1 | Cc1cc(-c2cc(Nc3ccc(N4CCN(CCc5ccc(N6CCC(=O)NC6=O)cc5)C[C@H]4C)cn3)ncn2)ccc1[C@@H](C)NC(=O)c1nc(C(C)(C)C)no1 [Example 2, 3-tert-butyl-N-[(1R)-1-{4-[6-({5-[(2R)-4-{2-[4-(2,4-dioxo-1,3-diazinan-1-yl)phenyl]ethyl}-2-methylpiperazin-1-yl]pyridin-2-yl}amino)pyrimidin-4-yl]-2-methylphenyl}ethyl]-1,2,4-oxadiazole-5-carboxamide] | 98.8 | 12
2 | CC[C@@H]1CN(CCc2ccc(N3CCC(=O)NC3=O)cc2)CCN1c1ccc(Nc2cc(-c3ccc([C@@H](C)NC(=O)c4nc(C(C)(C)C)no4)c(C)c3)ncn2)nc1 [Example 8, 3-tert-butyl-N-[(1R)-1-{4-[6-({5-[(2R)-4-{2-[4-(2,4-dioxo-1,3-diazinan-1-yl)phenyl]ethyl}-2-ethylpiperazin-1-yl]pyridin-2-yl}amino)pyrimidin-4-yl]-2-methylphenyl}ethyl]-1,2,4-oxadiazole-5-carboxamide] | 98.6 | 30
3 | Cc1c([C@@H](C)NC(=O)c2nc(C(C)(C)C)no2)ccc(-c2cc(Nc3ccc(N4CCN(CCc5ccc(N6CCC(=O)NC6=O)cc5)C[C@@H]4C)cn3)ncn2)c1F [Example 10, 3-tert-butyl-N-[(1R)-1-{4-[6-({5-[(2S)-4-{2-[4-(2,4-dioxo-1,3-diazinan-1-yl)phenyl]ethyl}-2-methylpiperazin-1-yl]pyridin-2-yl}amino)pyrimidin-4-yl]-3-fluoro-2-methylphenyl}ethyl]-1,2,4-oxadiazole-5-carboxamide] | 98.5 | 9
4 | CC[C@H]1CN(CCc2ccc(N3CCC(=O)NC3=O)c(F)c2)CCN1c1ccc(Nc2cc(-c3ccc([C@@H](C)NC(=O)c4nc(C(C)(C)C)no4)c(C)c3)ncn2)nc1 [Example 7, 3-tert-butyl-N-[(1R)-1-{4-[6-({5-[(2S)-4-{2-[4-(2,4-dioxo-1,3-diazinan-1-yl)-3-fluorophenyl]ethyl}-2-ethylpiperazin-1-yl]pyridin-2-yl}amino)pyrimidin-4-yl]-2-methylphenyl}ethyl]-1,2,4-oxadiazole-5-carboxamide] | 99.3 | 22
5 | Cc1cc(-c2cc(Nc3ccc(N4CCN(CCc5ccc(N6CCC(=O)NC6=O)c(F)c5)C[C@H]4C)cn3)ncn2)ccc1[C@@H](C)NC(=O)c1nc(C(C)(C)C)no1 [Example 5, 3-tert-butyl-N-[(1R)-1-{4-[6-({5-[(2R)-4-{2-[4-(2,4-dioxo-1,3-diazinan-1-yl)-3-fluorophenyl]ethyl}-2-methylpiperazin-1-yl]pyridin-2-yl}amino)pyrimidin-4-yl]-2-methylphenyl}ethyl]-1,2,4-oxadiazole-5-carboxamide] | 99.3 | 12
6 | Cc1cc(-c2cc(Nc3ccc(N4CCN(CCc5ccc(N6CCC(=O)NC6=O)cc5)CC4(C)C)cn3)ncn2)ccc1[C@@H](C)NC(=O)c1nc(C(C)(C)C)no1 [Example 9, 3-tert-butyl-N-{(1R)-1-[4-(6-{{5-(4-{2-[4-(2,4-dioxo-1,3-diazinan-1-yl)phenyl]ethyl}-2,2-dimethylpiperazin-1-yl)pyridin-2-yl}amino}pyrimidin-4-yl)-2-methylphenyl]ethyl}-1,2,4-oxadiazole-5-carboxamide] | 99.5 | 31

More lines, now with the values ahead:

Row | Dmax [1] [%] | Mouse Bone Marrow (%) (% remaining BTK, vehicle versus treated) (BTK in mouse bone marrow) | Compound
7 | 99.8 | 17 | Cc1cc(-c2cc(Nc3ccc(N4CCN(CCc5ccc(N6CCC(=O)NC6=O)cc5)CC4)cn3)ncn2)c(F)cc1[C@@H](C)NC(=O)c1nc(C(C)(C)C)no1 [Example 12, 3-tert-butyl-N-{(1R)-1-[4-(6-{[5-(4-{2-[4-(2,4-dioxo-1,3-diazinan-1-yl)phenyl]ethyl}piperazin-1-yl)pyridin-2-yl]amino}pyrimidin-4-yl)-5-fluoro-2-methylphenyl]ethyl}-1,2,4-oxadiazole-5-carboxamide]
8 | 97.7 | 29 | Cc1c([C@@H](C)NC(=O)c2nc(C(C)(C)C)no2)ccc(-c2cc(Nc3ccc(N4CCN(CCc5ccc(N6CCC(=O)NC6=O)cc5)CC4)cn3)ncn2)c1F [Example 11, 3-tert-butyl-N-{(1R)-1-[4-(6-{[5-(4-{2-[4-(2,4-dioxo-1,3-diazinan-1-yl)phenyl]ethyl}piperazin-1-yl)pyridin-2-yl]amino}pyrimidin-4-yl)-3-fluoro-2-methylphenyl]ethyl}-1,2,4-oxadiazole-5-carboxamide]
9 | 100 | 51 | Cc1cc(-c2cc(Nc3ccc(CCN4CCN(c5ccc(N6CCC(=O)NC6=O)cc5)CC4)cn3)ncn2)ccc1[C@@H](C)NC(=O)c1nc(C(C)(C)C)no1 [Example 19]
10 | 99.5 | 25 | Cc1cc(-c2cc(Nc3ccc(N4CCN(CCc5ccc(N6CCC(=O)NC6=O)cc5)C[C@@H]4C)cc3)ncn2)ccc1[C@@H](C)NC(=O)c1nc(C(C)(C)C)no1 [Example 18]
11 | 99 | 26 | Cc1cc(-c2cc(Nc3ccc(N4CCN(CCc5ccc(N6CCC(=O)NC6=O)cc5)C[C@@H]4C(C)C)cn3)ncn2)ccc1[C@@H](C)NC(=O)c1nc(C(C)(C)C)no1 [Example 13, 3-tert-butyl-N-[(1R)-1-{4-[6-({5-[(2S)-4-{2-[4-(2,4-dioxo-1,3-diazinan-1-yl)phenyl]ethyl}-2-(propan-2-yl)piperazin-1-yl]pyridin-2-yl}amino)pyrimidin-4-yl]-2-methylphenyl}ethyl]-1,2,4-oxadiazole-5-carboxamide]
